Source: PMC5594551, “Heterogeneous drug penetrance of veliparib and carboplatin measured in triple negative breast tumors” (Breast Cancer Research : BCR, 2017)
Where two headings read alike, the source gives them in different places.

How the values were obtained:
[1] = tested on: metastatic BRCA-mutated breast cancer; set-up: method as in ref [52] = [52]; 52. Somlo G Phase II trial of single agent PARP inhibitor ABT-888 (veliparib [vel]) followed by postprogression therapy of vel with carboplatin (carb) in patients (pts) with stage BRCA-associated meta; settings: veliparib 400 mg BID until disease progression; ref [52]; cited from earlier work
[2] = Veliparib quantified by LC-MS in plasma, TNBC xenograft tumor, muscle and liver of mice; assay type: in vivo, beige SCID mice; settings: for Median conc. (RSE %) / concentration at 3 h: LC-MS; for concentration at 3 h: beige SCID (Fox Chase), mouse, read-out: Median conc. (RSE %)
Description: Forty-one beige DF mice with severe combined immunodeficiency (SCID) (Fox Chase, strain R035948:1) were implanted with 10^6 MDA-MB-231 (N = 10), HCC70 N = 21) or MDA-MB-436 (N = 10) TNBC cells obtained from the ATCC bilaterally in the mammary fat pads (Fig. 1). When the TNBC xenograft tissue size exceeded 200 mm^3, the mice were randomized across the treatment cohorts. Animals were randomized into veliparib low dose (20 mg/kg), veliparib high dose (60 mg/kg) or placebo + C, introduced via oral gavage three times daily for 3 days (all but the two DCE-MRI study mice). Carboplatin at 60 mg/kg was administered intravenously on day 1 and day 2. Blood samples (50 μL) were obtained at day 2 in ethylenediaminetetraacetic acid (EDTA) containing vials at 0.6, 3 and 5 h after veliparib and carboplatin dose in 15 mice (all xenograft models, Fig. 1). The procedures were approved by the Institutional Animal (IACUC AN092211-01D).
Thirty-nine mice were euthanized approximately 3 h after the last dose of veliparib and 24 h after the last dose of carboplatin; two mice used in the DCE-MRI pilot were euthanized 1.5 h after single-dose administration of veliparib and carboplatin (Fig. 1). Bilateral xenograft tumors and liver and muscle (quadriceps) tissues were harvested. Tissues were cut into three pieces and either embedded in optimum cutting temperature (OCT) formulation or were directly snap frozen in liquid-nitrogen-cooled isopentane and stored at − 80 °C until analysis. […] A separate fresh-frozen portion of each tissue per animal was ground for quantification of veliparib and carboplatin by LC-MS. Method development and details of the techniques are described in Additional file 1a-c. […]
c) Technical aspects of the LC-MS method development.
Plasma samples (50 μl ) were prepared using protein precipitation with acetonitrile. Small tumor samples (average 44 mg) were pulverized using Biopulverizer R (Biospec Bartlesville, OK, USA). Volume and weight of the pulverized tumor was determined. Veliparib was then extracted using cell lysis buffer (Cell Signaling Technology, Danvers, MA,USA), complemented with Halt Protease & Phosphatase (ThermoScientific, Atlanta, GA,USA). Protein precipitation of the tissue lysates was performed with acetonitrile. Oxaliplatin (Tzchem, Framingham, MA,USA) and iniparib (Sigma-Aldrich, Milwaukee, USA) were used as internal standards.
Veliparib/carboplatin quantification:
Carboplatin and veliparib were measured using LC-MS (Applied Biosystem Systems 3200 LC-MS/MS, Toronto, Canada), with electrospray ionization (ESI), using a Xterra® MS C18 3.5 µm column (Waters, Milford, MA, USA). The mobile phase contained 50:50 methanol and water with 0.1%, formic acid.
Concentration of veliparib in tissues were calculated in mg/g and transferred to mg/L by estimating the average density of the livers, muscles and tumors.
Figure S9: Example graph of mass spectrum of veliparib and carboplatin and the internal standards in plasma […]
Method development/validation
The limit of quantification was 15 ng/ml for veliparib and 156 ng/ml for carboplatin. The calibration curves […]
Figure S10) Repetition quantification from two tissue sections of the same animal to show consistence of results when repeating veliparib extraction (performed by LCMS).

## C[C@]1(c2nc3c(C(N)=O)cccc3[nH]2)CCCN1 [veliparib]
[1]
  Patients with partial response: 20%
[2]; 20 mg/kg dose
  Xenograft tissues below the limit of detection by LC-MS: 42%
[2]; HCC70 xenograft tissue, 60 mg/kg
  Median conc. (RSE %): 0.43 (16) mg/L
[2]; MDA-MB-231 xenograft tissue, 60 mg/kg
  Median conc. (RSE %): 0.27 (18) mg/L
[2]; MDA-MB-436 xenograft tissue, 60 mg/kg
  Median conc. (RSE %): 0.32 (26) mg/L
[2]; TNBC xenograft tissue (all cell lines), 20 mg/kg, 3 h after last dose
  Median conc. (RSE %): 0.12 (31) mg/L
[2]; TNBC xenograft tissue (all cell lines), 60 mg/kg, 3 h after last dose, 60 mg/kg
  Median conc. (RSE %): 0.36 (12) mg/L
[2]; oral, liver, 60 mg/kg, 3 h after last dose
  concentration at 3 h: 1770 ng/mL
[2]; oral, plasma, veliparib 60 mg/kg three times daily, 3 h post dose
  concentration at 3 h: 860 ng/mL
[2]; tumor (HCC70 xenograft), oral, HCC70 xenograft tissue, 20 mg/kg
  concentration at 3 h: 130 ng/mL
[2]; tumor (HCC70 xenograft), oral, HCC70 xenograft tissue, 60 mg/kg
  concentration at 3 h: 430 ng/mL
[2]; tumor (MDA-MB-231 xenograft), oral, MDA-MB-231 xenograft tissue, 20 mg/kg
  concentration at 3 h: 10 ng/mL
[2]; tumor (MDA-MB-231 xenograft), oral, MDA-MB-231 xenograft tissue, 60 mg/kg
  concentration at 3 h: 270 ng/mL
[2]; tumor (MDA-MB-436 xenograft), oral, MDA-MB-436 xenograft tissue, 20 mg/kg
  concentration at 3 h: 50 ng/mL
[2]; tumor (MDA-MB-436 xenograft), oral, MDA-MB-436 xenograft tissue, 60 mg/kg
  concentration at 3 h: 320 ng/mL
[2]; tumor (TNBC xenograft, oral), TNBC xenograft tissue (all cell lines), 60 mg/kg, 3 h after last dose
  concentration at 3 h: 360 ng/mL
[2]; liver, 20 mg/kg, 3 h after last dose
  Median conc. (RSE %): 0.47 (20) mg/L
[2]; liver, 60 mg/kg, 3 h after last dose, 60 mg/kg
  Median conc. (RSE %): 1.77 (14) mg/L
[2]; muscle, 20 mg/kg, 3 h after last dose
  Median conc. (RSE %): 0.12 (70) mg/L
[2]; muscle, 60 mg/kg, 3 h after last dose
  Median conc. (RSE %): 0.47 (47) mg/L
[2]; plasma, veliparib 20 mg/kg three times daily, 3 h post dose
  Median conc. (RSE %): 0.19 (10) mg/L
[2]; plasma, veliparib 60 mg/kg three times daily, 3 h post dose
  Median conc. (RSE %): 0.86 (11) mg/L
